One series has as its system K-562. Nature of the series: Cell viability assay (resazurin). It is filed as cell-based. Conditions: Homo sapiens, K562; K-562, 72 h, mean ± SD. As for the experimental part:
(§1) Cell culture. MV4-11, HL60, K-562, THP-1, MO91, and U937 cell lines were from the ATCC (Rockville, MD, USA); MOLM-13, NB4, and PL21 cell lines were from the DSMZ (Braunschweig, Germany); and Jurkat cells were from the ECACC (Salisbury, UK). All cells were cultured in RPMI medium (Sigma-Aldrich) supplemented with 10% to 20% of heat-inactivated fetal bovine serum (Sigma-Aldrich), and cells were maintained at 37 °C, 5% CO2, and 95% humidity. All the cell lines were tested to be mycoplasma-negative using MycoAlert^TM mycoplasma detection kit (Lonza, Derrimut, VIC, Australia).
(§2) Cell viability assay. The viability of leukemia cell lines after incubation with CDDD11-8 was determined by their ability to reduce resazurin, as described previously. Cells (5 × 10^3) were seeded into 96-well plates (Corning Inc., Corning, NY, USA) and incubated overnight at 37 °C. Subsequently, they were incubated with CDDD11-8 (concentrations ranging from 0.003 µM to 31.6 µM; using three-fold serial dilutions) or DMSO (final concentration of 0.1%) for 72 h. Afterwards, cells were incubated with 20 µL of resazurin (0.1 mg/mL in PBS) for 4 h at 37 °C under 5% CO2, and the fluorescence intensities were measured using an EnVision® multilabel plate reader at 570 nm (excitation)/585 nm (emission). The concentration required to inhibit cellular growth by 50% (GI50) was determined using the same non-linear regression model as shown above, with Ar (%) = % cell viability, and IC50 replaced with GI50.

The next series has as its system THP-1. Nature of the series: Cell viability assay (resazurin). It counts as cell-based. The note with it: THP-1, 72 h, mean ± SD. The procedure:
as §1, §2

The next series concerns HL60. Put plainly: Cell viability assay (resazurin). It counts as cell-based. The note with it: Homo sapiens, HL-60; HL60, 72 h, mean ± SD. The procedure:
as §1, §2

The test system of the next series is JURKAT. Put plainly: Cell viability assay (resazurin). It counts as cell-based. The note with it: Homo sapiens, 72 h, mean ± SD. As for the experimental part: as §1, §2
A further series relates to MOLM-13. Nature of the series: Cell viability assay (resazurin). It counts as cell-based. The note with it: MOLM-13, 72 h, mean ± SD. The procedure: as §1, §2
The test system of a further series is NB4. Nature of the series: Cell viability assay (resazurin). Conditions: Homo sapiens, NB-4; NB4, 72 h, mean ± SD. It counts as cell-based. The procedure: as §1, §2
The next series deals with U937. Put plainly: Cell viability assay (resazurin). It counts as cell-based. Conditions: Homo sapiens, U-937; U937, 72 h, mean ± SD. The procedure:
as §1, §2

The subject of a further series is PL21. Nature of the series: Cell viability assay (resazurin). It counts as cell-based. The note with it: PL21, 72 h, mean ± SD. As for the experimental part:
as §1, §2

Series [1] is described as follows: Maximum tolerated dose in non-tumor bearing mice. It counts as in vivo. The procedure: In vivo efficacy of CDDD11-8 against AML xenografts in mice. The maximum tolerated dose (MTD) of CDDD11-8 was determined in non-tumor bearing female BALB/c nude (nu/nu) mice (n = 3). […] Our proposed maximum dose of CDDD11-8 was 150 mg/kg once daily for seven days. […] All the animals received 28 doses of vehicle or CDDD11-8 at 75 or 125 mg/kg strength. […] The tumor regression was maintained over the dosing period. On day 29, the tumors in the 75 mg/kg treated group had recommenced growth to variable degrees (Supplementary Table S3). […] On day 29, one and three mice from the 75 and 125 mg/kg CDDD11-8 treated groups, respectively, had unmeasurable tumor size (zero tumor volume).

In the next series the test system is MV4-11 cells. Nature of the series: Western blotting of cellular signaling pathways. It counts as cell-based. The procedure: Western blotting. Western blotting was performed as described previously. Briefly, cells were lysed after incubation with different concentrations of compounds or control (0.1% DMSO) at the indicated times, samples were denatured at 95 °C for 5 min, and proteins having different molecular weights within each sample were separated by electrophoresis (Bio-Rad, Hercules, CA, USA) on polyacrylamide gels (4–20%, Bio-Rad). Resolved proteins were electrophoretically transferred onto a PVDF membrane and blocked by incubating with 10% w/v non-fat powdered milk dissolved in 1 × Tris-buffered saline-tween 20 (TBST) for 1 h at room temperature prior to incubating overnight with primary antibodies at 4 °C with slight shaking. Chemiluminescence was detected with a ChemiDoc^TM gel imaging system after the membranes have been exposed to ECL substrates (GE Healthcare, PA, USA), and the Image Lab software (Bio-Rad) was used for image capture. The primary antibodies used were: β-Actin (Invitrogen, Cat MA515739, 1:5000), β-Tubulin (Cell Signaling Technology, Cat 2146, 1:1000), AKT (Cell Signaling Technology, Cat 9272, 1:1000), c-MYC (Cell Signaling Technology, Cat 5605, 1:1000), Caspase-3 (Cell Signaling Technology, Cat 9665, 1:1000), Cleaved PARP (Cell Signaling Technology, Cat 5625, 1:1000), ERK1/2 (p44/42 MAPK, Cell Signaling Technology, Cat 4695, 1:1000), GAPDH (Invitrogen, Cat PA1987, 1:1000), MCL-1 (Cell Signaling Technology, Cat 942965, 1:1000), PARP (Cell Signaling Technology, Cat 9532, 1:1000), Phospho-AKT (Ser473) (Cell Signaling Technology, Cat 9271, 1:1000), Phospho-ERK (Thr202/Tyr204) (Cell Signaling Technology, Cat 4370, 1:1000), Phospho-FLT3 (Tyr591) (Cell Signaling Technology, Cat 3461, 1:1000), Phospho-STAT5 (Tyr694) (Cell Signaling Technology, Cat 9359, 1:1000), RNAP II CTD (BioLegend (CA, USA), Cat 664906, 1:1000), RNAP II CTD Phospho-Ser2 (BioLegend, Cat 920204, 1:1000), RNAP II CTD Phospho-Ser5 (Abcam, Cat ab5408, 1:1000), STAT5 (Cell Signaling Technology, Cat 9363, 1:1000), and XIAP (Cell Signaling Technology, Cat 14334, 1:1000). Bands were quantified using ImageJ software (US National Institutes of Health, Bethesda, MD, USA).

The mark [2] stands for this setting: MV4-11, time-course, within 2 h.

Molecules are shown by their SMILES. A value given as a limit tells only on which side of the number the result lay.

Consider `Cc1cnc(N[C@H]2CC[C@H](N)CC2)nc1-c1cnc2ccc(-c3ccccc3)cn12` [CDDD11-8], for which the GI50 is 1500 ± 47 nM with K-562; 460 nM in the series with THP-1 (Homo sapiens); 459 ± 40 nM in the series with THP-1; 475 ± 25 nM in the series on HL60; 599 ± 90 nM with JURKAT; under 100 nM in the series with MOLM-13 (Homo sapiens). Further, the GI50 with MOLM-13 turned out to be 70 ± 20 nM; in the series with NB4, 473 ± 107 nM; with U937 it was 713 ± 93 nM; with PL21, 339 ± 34 nM; in the series with PL21 (PL-21, 72 h) it was 340 nM. Moreover, in series [1] (female, BALB/c nude (nu/nu), mouse, in vivo, oral, once daily for seven days), the maximum tolerated dose (MTD) at 7 days stood at 150 mg/kg. The same compound gave a body weight loss in [1] (oral 200 mg/kg, one mouse after five days, the rest after seven days) of over 15%. The “clinical signs of toxicity / weight loss” value in series [1] (up to oral 150 mg/kg once daily for 7 days) is listed as “no overt clinical signs of toxicity or significant weight loss”. Moreover, the “level of p-FLT3 Tyr591” value in the series with MV4-11 cells (MV4-11) is on record as “reduced”. In the series with MV4-11 cells (MV4-11, 1 µM, 24 h), the “expression of MCL-1” value is “reduced to almost undetectable levels”. The “expression of XIAP” value in the series with MV4-11 cells (MV4-11, 1 µM, 24 h) was “reduced to almost undetectable levels”. In addition, the “expression of c-MYC” value in the series with MV4-11 cells (MV4-11, 0.3 and 1 µM, as early as 2 h) is given as “completely blocked”. Besides, in the series with MV4-11 cells (setting [2]), the “reduction of p-RNAP II Ser2 level” value is listed as “approximately 20%”. Besides, the “reduction of p-RNAP II Ser5 level” value in the series with MV4-11 cells (setting [2]) is recorded as “approximately 20%”.

The values are drawn from paper PMC8909834, “An Orally Bioavailable and Highly Efficacious Inhibitor of CDK9/FLT3 for the Treatment of Acute Myeloid Leukemia” (Cancers, 2022).
